Results from US4181728A, “Spiro-polycyclicimidazolidinedione derivatives” (Pfizer Inc., priority 1978, dated 1980).

Legend:
[1] = test system: sorbitol accumulation in the sciatic nerve; experiment: Inhibition of sorbitol accumulation in the sciatic nerve of streptozotocinized (diabetic) rats; type: in vivo, rat; conditions: measured 27 h after induction, vs untreated
Method: Some of the Examples of spiro-polycyclicimidazolidinedione derivatives prepared above were also tested for their ability to reduce or inhibit sorbitol accumulation in the sciatic nerve of streptozotocinized (i.e., diabetic) rats by the procedure essentially described in U.S. Pat. No. 3,821,383. In the present study, the amount of sorbitol accumulation in the sciatic nerves was measured 27 hours after induction of diabetes. The compounds were administered orally at the dose level indicated at 4, 8 and 24 hours following the administration of streptozotocin. The results obtained in this manner are presented in terms of percent inhibition (%) afforded by the test compound as compared to the case where no compound was administered (i.e., the untreated animal where sorbitol levels normally rise from approximately […] tissue to as high as 400 mM/g tissue in the 27-hour test period).

[2] = target: T1, aldose reductase enzyme obtained from calf lens (Bos taurus, UniProt P16116); experiment: Aldose reductase inhibitory activity (partially purified calf lens enzyme); type: biochemical; conditions: 10^-4 M, * = average of 2 or 3 tests (Examples 2, 5, 6, 7)
T1 construct: partially purified aldose reductase enzyme obtained from calf lens; from tissue; host or cells: calf lens
Method: The Examples of spiro-polycyclicimidazolidinedione derivatives prepared above were tested for their ability to reduce or inhibit aldose reductase enzyme activity, following the procedure described in U.S. Pat. No. 3,821,383 and based on the procedure of Hayman et. al., Journal of Biological Chemistry, 240, 877 (1965). The substrate employed was partially purified aldose reductase enzyme obtained from calf lens. The drug was tested at a concentration of 10^-4 M and optionally at lower concentrations and the results are expressed as percent inhibition of enzyme activity.
*This number represents an average of 2 or 3 tests.

[3] = 1.5 mg/kg oral at 4, 8 and 24 h after streptozotocin
[4] = 5.0 mg/kg oral at 4, 8 and 24 h after streptozotocin

inhibition at 100 µM [2] [%]	Compound	% Inhibition of sorbitol accumulation [1, 3]	% Inhibition of sorbitol accumulation [1, 4] [%]
78	O=C1NC(=O)C2(CCOc3ccc4ccccc4c32)N1 (centres unmarked) [Example 6, 2',3'-dihydro-spiro[imidazolidine-4,4'-[4'H]-naphtho[2,1-b]pyran]-2,5-dione]	no effect	
60	O=C1NC(=O)C2(CCCc3ccc4ccccc4c32)N1 (centres unmarked) [Example 10, 1',2',3',4'-tetrahydro-spiro[imidazolidine-4,4'-phenanthrene]-2,5-dione]		
26	O=C1NC(=O)C2(CCCc3ccc4cc5ccccc5cc4c32)N1 (centres unmarked) [Example 3, 1',2',3',4'-tetrahydro-spiro[imidazolidine-4,1'-benz[a]anthracene]-2,5-dione]		
86	O=C1NC(=O)C2(CCCc3c2ccc2ccccc32)N1 (centres unmarked) [Example 7, 1',2',3',4'-tetrahydro-spiro[imidazolidine-4,1'-phenanthrene]-2,5-dione]	no effect	
59	O=C1NC(=O)C2(CCSc3ccc4ccccc4c32)N1 (centres unmarked) [Example 1, 2',3'-dihydro-spiro[imidazolidine-4,4'-[4'H]-naphtho[2,1-b]thiopyran]-2,5-dione]		

Further lines, the compound ahead of its results:

Compound	inhibition at 100 µM [2] [%]	% Inhibition of sorbitol accumulation [1, 3]	% Inhibition of sorbitol accumulation [1, 4] [%]
O=C1NC(=O)C2(CCOc3c2ccc2ccccc32)N1 (centres unmarked) [Example 9, 2',3'-dihydro-spiro[imidazolidine-4,4'-[4'H]-naphtho[1,2-b]pyran]-2,5-dione]	72	30%	
COc1cccc2c3c(ccc12)C1(CCO3)NC(=O)NC1=O (centres unmarked) [Example 2, 2',3'-dihydro-7'-methoxy-spiro[imidazolidine-4,4'-[4'H]-naphtho[1,2-b]pyran]-2,5-dione]	94	no effect	
O=C1NC(=O)C2(CCOc3c2cc(Cl)c2ccccc32)N1 (centres unmarked) [Example 5, 5',6'-dihydro-6'-chloro-spiro[imidazolidine-4,4'-[4'H]-naphtho[1,2-b]pyran]-2,5-dione]	78		58
O=C1NC(=O)C2(CCc3cccc4cccc2c34)N1 (centres unmarked) [Example 8, 2',3'-dihydro-spiro[imidazolidine-4,1'-phenalene]-2,5-dione]	71		28
O=C1NC(=O)C2(CCSc3c2ccc2ccccc32)N1 (centres unmarked) [Example 4, 2',3'-dihydro-spiro[imidazolidine-4,4'-[4'H]-naphtho[1,2-b]thiopyran]-2,5-dione]	100	32%	
